Measured values: patent US20200108043A1, “COMPOUNDS AND COMPOSITIONS FOR EXTENDING LIFESPAN OF A SUBJECT” (YALE UNIVERSITY, priority 2017, published 2020)

Key:
[1] = tested on: Saccharomyces cerevisiae; assay: High-Life (High throughput replicative Lifespan measurement) flow cytometry assay in MEP yeast; type: cell-based; settings: fresh samples from secondary source, 24 hours of culture
[2] = tested on: Saccharomyces cerevisiae; assay: as above; type: cell-based; settings: 10 μM, 24 hours in culture, 3-4 replicate wells, repeat of screen hits
Description: Cells were labeled with NHS-fluorescein as described above, then diluted to 20 cells/μL in media. 80 μL/well was aliquoted to 384-well plates, which were covered with a breathable membrane and placed on a shaker platform in a humidified incubator. After 3 hours, the plates were removed from the incubator and each well was treated with 20 μL pre-warmed, 30° C. 5 μM β-estradiol in media. In the case of ibuprofen or compound-treated wells, the compound was diluted in this volume at a 5× concentration to achieve a final concentration of 10 μM, or 100 μM for ibuprofen. The plates were then returned to the incubator. At indicated times, one plate was removed from the incubator and placed on an autosampler cooled to 8° C. attached to a Stratedigm flow cytometer. The cytometer was set to automatically add and mix 20 μL of aqueous solution containing 60 μg/mL CF405M-WGA (Biotium 29028) and propidium iodide (Sigma P4864) prior to acquiring 80 μL of sample for each well.
In order to test the lifespan of model organisms on both a large-scale and with quick turn-around, a massively multiplexed method was developed to measure replicative lifespan in the short-lived model organisms Saccharomyces cerevisiae. The protocol uses green-fluorescent labeling to identify progenitor cells, red-fluorescent labeling to differentiate non-viable cells, and blue-fluorescent labeling of bud scars to determine replicative age (FIG. 1). Each parameter is measured using a flow cytometer.
To achieve high throughput, the measurement system was automated, and the assay was performed in 384-well plates. The assay was performed using an autosampler-equipped flow cytometer, in a volume of 100 μL. Growth of even a single cell and its progeny in such a small volume will result in nutrient starvation before the natural replicative lifespan is exhausted; therefore to circumvent this issue, High-Life experiments were performed in the background of the Mother Enrichment Program (MEP) (Lindstrom and Gottschling, Genetics. 2009 October; 183(2):413-22). MEP strains express a CRE recombinase fused to an estrogen-binding domain for only a short time after birth. In the presence of β-estradiol, the recombinase translocates to the nucleus where it can excise two essential genes that have been modified to contain the exogenous LoxP sequence. Addition of β-estradiol to the media thus renders newborn daughters inviable without affecting existing mother cells, preventing exponential growth of the cell population and nutrient depletion (FIG. 2A).
The High-Life method was then tested to determine if it was suitable to screening for compounds that extend replicative lifespan. […] The effect of these compounds on High-Life readings was assayed after 24 hours in culture at 10 μM concentration. As a positive control, ibuprofen was used.

## COc1c(C)c2c(c(O)c1C/C=C(\C)CCC(=O)O)C(=O)OC2 [mycophenolic acid]
[1]
  dose-response: cell survival in High-Life: clear concentration-dependent effects
[2]
  average High-Life readings (progenitor fraction viable vs CF405M intensity) relative to controls: at least slightly above controls
